These results are taken from patent publication US20050112701A1, “Test system for the identification of APJ receptor ligands” (Aventis Pharma Deutschland GmbH, priority 2003, published 2005).

Ends that are not written are not given here.

What all share (type): cell-based
The target of assay [1] is T1, APJ receptor (Homo sapiens, UniProt P35414).
T1 sequence (P35414 1-380): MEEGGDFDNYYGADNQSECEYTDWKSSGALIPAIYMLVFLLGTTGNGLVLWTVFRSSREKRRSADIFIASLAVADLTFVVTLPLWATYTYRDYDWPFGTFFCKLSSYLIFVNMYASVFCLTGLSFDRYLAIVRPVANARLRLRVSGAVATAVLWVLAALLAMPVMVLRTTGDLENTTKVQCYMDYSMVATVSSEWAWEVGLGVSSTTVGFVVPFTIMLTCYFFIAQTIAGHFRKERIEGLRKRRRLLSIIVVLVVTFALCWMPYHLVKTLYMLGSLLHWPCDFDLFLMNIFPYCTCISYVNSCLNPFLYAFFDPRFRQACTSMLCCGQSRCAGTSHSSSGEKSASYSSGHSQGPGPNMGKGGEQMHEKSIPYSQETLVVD
Nature of the assay: FLIPR calcium assay in CHO cells transiently cotransfected with APJ receptor and G protein α subunits (FIG. 3). Also noted: expressed in transfected cells; host or cells: CHO (Chinese hamster ovary), transient. Conditions: 1 μmol/l peptide; CHO cells cotransfected with APJ and α16 or αΔ6qi4myr; response required chimeric/promiscuous Gα subunit. An excerpt: The APJ receptor was transiently cotransfected in CHO cells (Chinese hamster ovary cells) with vector DNA as a control (white column) or the G protein α subunits α16 (black column) and αΔ6qi4myr (striped column) according to methods known to the one skilled in the art. […] Data presented are mean values (fluorescence intensity units, FIU) from 2 individual experiments performed in duplicate.
(§1) The FLIPR calcium assay provides a suitable method for detecting changes in intracellular calcium concentration. It is a fluorescence-based assay which was performed according to the manufacture's instructions (Molecular Devices, CA, USA). Briefly summarized, cells were seeded on 96- or 384-well plates Loading Buffer was added to the cells and plates incubated for 1 hour at 37° C. After incubation cells were stimulated with the prevailing APJ receptor ligand or none. Thereafter intracellular calcium concentration was measured in the FLIPR according to the FLIPR system manual.

Assay [2] concerns the target T1, APJ receptor. Nature of the assay: FLIPR calcium assay in stably transfected HEK 293 cells overexpressing G protein and APJ receptor (FIG. 4). As to conditions: 50 nmol/l, 200 nmol/l, 1 μmol/l; HEK 293 stably cotransfected with G protein and APJ; response required APJ receptor. More on the design: expressed in transfected cells; host or cells: HEK 293. The procedure: Data presented are mean values (fluorescence intensity units, FIU) from 2 individual experiments performed in duplicate.
as §1

In assay [3] the target is T1, APJ receptor. Nature of the assay: FLIPR calcium assay, EC50 of apelin peptides in HEK293-PSCi4qi4-APJ cells. Also noted: expressed in transfected cells; host or cells: HEK293-PSCi4qi4 (HEK 293 stably expressing Gαi4qi4). As to conditions: intracellular calcium. The procedure:
as §1

On to `CSCC[C@H](NC(=O)[C@@H]1CCCN1C(=O)CNC(=O)[C@H](CCCCN)NC(=O)[C@H](Cc1c[nH]cn1)NC(=O)[C@H](CO)NC(=O)[C@H](CC(C)C)NC(=O)[C@H](CCCNC(=N)N)NC(=O)[C@@H]1CCCN1C(=O)[C@@H](N)CCCNC(=N)N)C(=O)N1CCC[C@H]1C(=O)N[C@@H](Cc1ccccc1)C(=O)O` [Apelin-12], for which the “intracellular calcium release via the APJ receptor” value at APJ receptor [1] is reported as “induced intracellular calcium release”.

Broadly, the EC50 is the midpoint of the concentration-response curve. Take “LVQPRGSRNGPGPWQGGRRKFRRQRPRLSHKGPMPF [Apelin-36]”: the “intracellular calcium release via the APJ receptor” value at APJ receptor [1] was “induced intracellular calcium release”; on APJ receptor [2] it was “induced intracellular calcium release via the APJ receptor in a dose-dependent manner”. In addition, the EC50 at APJ receptor [3] (first of two independent measurements) was found to be 51 nM; at APJ receptor [3] (second of two independent measurements) it was 27 nM.
